Experimental data as given in ChEMBL document CHEMBL3272192, “Thyroxine analogues. 23. Quantitative structure-activity correlation studies of in vivo and in vitro thyromimetic activities” (1977).

Experiments:
Rattus norvegicus [1] = assay: In vivo antigoiter activity in rat; assay type: functional
Rattus norvegicus [2] = species: Rattus norvegicus; assay: Displacement of radiolabelled L-T3 from thyroid hormone receptor in intact rat hepatic nuclei relative to T3
[3] = target: T1, Thyroxine-binding globulin (Homo sapiens) (UniProt P05543); assay: Binding affinity to thyroxine binding globulin (unknown origin) relative to T4
T1 sequence (whole entry): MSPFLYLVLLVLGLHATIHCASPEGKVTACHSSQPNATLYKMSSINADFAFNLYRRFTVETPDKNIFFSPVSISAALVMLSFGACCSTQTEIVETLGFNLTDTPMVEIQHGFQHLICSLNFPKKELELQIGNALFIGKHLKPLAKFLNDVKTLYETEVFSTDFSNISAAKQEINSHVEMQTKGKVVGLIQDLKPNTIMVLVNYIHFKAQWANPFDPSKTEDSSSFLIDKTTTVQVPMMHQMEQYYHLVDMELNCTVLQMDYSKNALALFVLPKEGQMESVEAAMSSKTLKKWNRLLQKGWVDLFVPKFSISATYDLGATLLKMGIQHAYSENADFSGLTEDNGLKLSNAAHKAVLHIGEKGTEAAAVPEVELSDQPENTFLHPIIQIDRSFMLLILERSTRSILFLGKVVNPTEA

| RBA (Rattus norvegicus [2]) | log(%) (Rattus norvegicus [2]) | RBA [3] | log(%) [3] | SMILES | Activity (Rattus norvegicus [1]) | log(%) (Rattus norvegicus [1]) |
| --- | --- | --- | --- | --- | --- | --- |
|  |  |  |  | Cc1cc(Oc2c(I)cc(CC(N)C(=O)O)cc2I)ccc1N (centres undefined) | 0.036% | -1.444 |
|  |  |  |  | NC(Cc1cc(Br)c(Oc2ccc(O)c(I)c2)c(Br)c1)C(=O)O (centres undefined) | 16.87% | 1.227 |
|  |  |  |  | NC(Cc1cc(I)c(Oc2cccc(F)c2)c(I)c1)C(=O)O (centres undefined) | 1.39% | 0.143 |
| 0.2% | -0.699 |  |  | Cc1cccc(Oc2c(I)cc(CC(N)C(=O)O)cc2I)c1 (centres undefined) | 2.71% | 0.433 |
|  |  |  |  | NC(Cc1cc(Br)c(Oc2cc(Br)c(O)c(Br)c2)c(Br)c1)C(=O)O (centres undefined) | 0.065% | -1.187 |
|  |  |  |  | Cc1cc(CC(N)C(=O)O)ccc1Oc1ccc(O)c(I)c1 (centres undefined) | 0.12% | -0.921 |
|  |  |  |  | NC(Cc1cc(Cl)c(Oc2ccc(O)c(Cl)c2)c(Cl)c1)C(=O)O (centres undefined) | 0.091% | -1.041 |
| 38.5% | 1.59 | 0.67% | -0.174 | CC(C)(C)c1cc(Oc2c(I)cc(CC(N)C(=O)O)cc2I)ccc1O (centres undefined) | 21.7% | 1.336 |
| 1.4% | 0.146 |  |  | NC(Cc1cc(Br)c(Oc2ccc(O)c(I)c2)c(I)c1)C(=O)O (centres undefined) | 71.98% | 1.857 |
| 1.4% | 0.146 |  |  | NC(Cc1cc(I)c(Oc2ccc(O)c(C3CCCCC3)c2)c(I)c1)C(=O)O (centres undefined) |  |  |
| 0.3% | -0.523 |  |  | Cc1cc(O)c(I)cc1Oc1c(I)cc(CC(N)C(=O)O)cc1I (centres undefined) | 0.36% | -0.444 |
|  |  |  |  | Cc1cc(C)cc(Oc2c(I)cc(CC(N)C(=O)O)cc2I)c1 (centres undefined) | 0.054% | -0.839 |
| 0.4% | -0.398 |  |  | NC(Cc1cc(I)c(Oc2cccc(I)c2)c(I)c1)C(=O)O (centres undefined) | 27.12% | 1.433 |
|  |  |  |  | Cc1cc(CC(N)C(=O)O)cc(I)c1Oc1ccc(O)cc1 (centres undefined) | 0.093% | -1.032 |
|  |  |  |  | NC(Cc1cc(I)c(Oc2cccc(Br)c2)c(I)c1)C(=O)O (centres undefined) | 18% | 1.225 |
|  |  |  |  | NC(Cc1cc(Br)c(Oc2cc(I)c(O)c(I)c2)c(Br)c1)C(=O)O (centres undefined) | 1.97% | 0.294 |
|  |  |  |  | COc1ccc(Oc2c(I)cc(CC(N)C(=O)O)cc2I)cc1C(C)(C)C (centres undefined) | 2.35% | 0.371 |
| 36% | 1.56 |  |  | CC(C)c1cc(Oc2c(Br)cc(CC(N)C(=O)O)cc2Br)ccc1O (centres undefined) | 30% | 1.477 |
|  |  |  |  | NC(Cc1cc(I)c(Oc2ccc(O)c(Br)c2)c(I)c1)C(=O)O (centres undefined) | 23.78% | 1.376 |
|  |  |  |  | NC(Cc1cc(I)c(Oc2cc(F)c(O)c(F)c2)c(I)c1)C(=O)O (centres undefined) | 0.43% | -0.366 |
|  |  |  |  | Cc1cc(Oc2c(I)cc(CC(N)C(=O)O)cc2I)cc(C)c1N (centres undefined) | 0.31% | -0.886 |

| RBA (Rattus norvegicus [2]) | log(%) (Rattus norvegicus [2]) | RBA [3] | log(%) [3] | SMILES | Activity (Rattus norvegicus [1]) | log(%) (Rattus norvegicus [1]) |
| --- | --- | --- | --- | --- | --- | --- |
|  |  |  |  | Cc1cc(CC(N)C(=O)O)cc(I)c1Oc1ccc(O)c(I)c1 (centres undefined) | 6.24% | 0.795 |
|  |  | 9% | 0.954 | N[C@@H](Cc1cc(I)c(Oc2ccc(O)c(I)c2)c(I)c1)C(=O)O [LIOTHYRONINE] | 100% | 2 |
| 0.7% | -0.155 |  |  | Cc1cc(CC(N)C(=O)O)cc(C)c1Oc1ccc(O)c(C(C)C)c1 (centres undefined) | 3.6% | 0.556 |
|  |  |  |  | NC(Cc1cc(I)c(Oc2ccc(O)c([N+](=O)[O-])c2)c(I)c1)C(=O)O (centres undefined) | 0.18% | -0.745 |
| 100% | 2 | 3.53% | 0.548 | CC(C)c1cc(Oc2c(I)cc(CC(N)C(=O)O)cc2I)ccc1O (centres undefined) | 142.1% | 2.153 |
| 21% | 1.32 | 1.59% | 0.201 | CCc1cc(Oc2c(I)cc(CC(N)C(=O)O)cc2I)ccc1O (centres undefined) | 40.8% | 1.611 |
|  |  |  |  | CCC(C)c1cc(Oc2c(C)cc(CC(N)C(=O)O)cc2C)ccc1O (centres undefined) | 2.91% | 0.464 |
|  |  |  |  | Cc1cc(CC(N)C(=O)O)cc(C)c1Oc1ccc(O)c(I)c1 (centres undefined) | 0.9% | -0.046 |
| 1.3% | 0.114 |  |  | NC(Cc1cc(I)c(Sc2ccc(O)cc2)c(I)c1)C(=O)O (centres undefined) |  |  |
| 1.4% | 0.146 |  |  | CC(C)c1cc(Oc2c(I)cc(CC(N)C(=O)O)cc2I)cc(C(C)C)c1O (centres undefined) |  |  |
|  |  |  |  | NC(Cc1cc(Br)c(Oc2ccc(O)c(Br)c2)c(Br)c1)C(=O)O (centres undefined) | 4.63% | 0.666 |
|  |  |  |  | NC(Cc1cc(I)c(Oc2cccc(Cl)c2)c(I)c1)C(=O)O (centres undefined) | 7.78% | 0.891 |
| 0.2% | -0.699 |  |  | NC(Cc1cc(I)c(Oc2cccc(C(F)(F)F)c2)c(I)c1)C(=O)O (centres undefined) | 13.56% | 1.132 |
| 6.2% | 0.792 | 0.29% | -0.538 | Cc1cc(Oc2c(I)cc(CC(N)C(=O)O)cc2I)cc(C)c1O (centres undefined) | 9.04% | 0.956 |
| 100% | 2 |  |  | NC(Cc1cc(I)c(Sc2ccc(O)c(I)c2)c(I)c1)C(=O)O (centres undefined) | 13.82% | 1.14 |
|  |  |  |  | CCC(C)c1cc(Oc2c(I)cc(CC(N)C(=O)O)cc2I)ccc1O (centres undefined) | 79.9% | 1.902 |
| 6.2% | 0.792 |  |  | NC(Cc1cc(I)c(Oc2ccc(O)c(Cl)c2)c(I)c1)C(=O)O (centres undefined) | 4.88% | 0.688 |
| 1.1% | 0.041 |  |  | Cc1c(O)ccc(Oc2c(I)cc(CC(N)C(=O)O)cc2I)c1C (centres undefined) | 9.04% | 0.956 |
| 0.76% | -0.119 |  |  | Nc1ccc(Oc2c(I)cc(CC(N)C(=O)O)cc2I)cc1 (centres undefined) | 0.27% | -0.569 |
| 0.1% | -1 |  |  | Cc1cc(Oc2c(C)cc(CC(N)C(=O)O)cc2C)ccc1O (centres undefined) | 0.54% | -0.268 |
|  |  |  |  | NC(Cc1cc(I)c(Oc2cc(F)c(O)c(I)c2)c(I)c1)C(=O)O (centres undefined) | 6.03% | 0.78 |

| RBA (Rattus norvegicus [2]) | log(%) (Rattus norvegicus [2]) | RBA [3] | log(%) [3] | SMILES | Activity (Rattus norvegicus [1]) | log(%) (Rattus norvegicus [1]) |
| --- | --- | --- | --- | --- | --- | --- |
|  |  |  |  | NC(Cc1cc(Cl)c(Oc2cc(Cl)c(O)c(I)c2)c(I)c1)C(=O)O (centres undefined) | 2.27% | 0.356 |
|  |  |  |  | NC(Cc1cc(I)c(Oc2cc(Br)c(O)c(Br)c2)c(I)c1)C(=O)O (centres undefined) | 1.58% | 0.199 |
|  |  |  |  | CC(C)c1cc(Oc2c(I)cc(CC(N)C(=O)O)cc2I)cc(I)c1O (centres undefined) | 55.36% | 1.743 |
|  |  | 0.06% | -1.22 | NC(Cc1cc(I)c(Oc2ccc(O)c(O)c2)c(I)c1)C(=O)O (centres undefined) | 0.27% | -0.569 |
|  |  |  |  | NC(Cc1cc(I)c(Oc2ccc(O)c(F)c2)c(I)c1)C(=O)O (centres undefined) | 0.65% | -0.785 |
| 0.1% | -1 |  |  | Cc1cc(Oc2c(C)cc(CC(N)C(=O)O)cc2C)cc(C)c1O (centres undefined) | 0.36% | -0.444 |
|  |  |  |  | NC(Cc1cc(I)c(Oc2ccccc2)c(I)c1)C(=O)O (centres undefined) | 1.24% | 0.093 |
| 0.1% | -1 |  |  | Cc1cc(Oc2c(I)cc(CC(N)C(=O)O)cc2I)c(C)cc1O (centres undefined) | 0.18% | -0.745 |
| 2% | 0.301 | 0.04% | -1.4 | NC(Cc1cc(I)c(Oc2ccc(O)c(-c3ccccc3)c2)c(I)c1)C(=O)O (centres undefined) | 2.03% | 0.308 |
| 8% | 0.903 |  |  | NC(Cc1cc(I)c(Oc2ccc(O)c3c2CCCC3)c(I)c1)C(=O)O (centres undefined) | 18.08% | 1.257 |
| 4.5% | 0.653 |  |  | NC(Cc1cc(I)c(Oc2cc(Cl)c(O)c(Cl)c2)c(I)c1)C(=O)O (centres undefined) | 3.8% | 0.58 |
|  |  |  |  | CCCc1cc(Oc2c(C)cc(CC(N)C(=O)O)cc2C)ccc1O (centres undefined) | 2.36% | 0.373 |
|  |  |  |  | CCCc1cc(Oc2c(I)cc(CC(N)C(=O)O)cc2I)ccc1O (centres undefined) | 39.5% | 1.597 |
| 0.2% |  |  |  | CC(C)c1cc(CC(N)C(=O)O)cc(C(C)C)c1Oc1ccc(O)c(I)c1 (centres undefined) |  |  |
|  |  |  |  | NC(Cc1cc(Br)c(Oc2cc(Br)c(O)c(I)c2)c(I)c1)C(=O)O (centres undefined) | 2.83% | 0.452 |
| 2.6% | 0.415 |  |  | NC(Cc1cc(I)c(Cc2cc(I)c(O)c(I)c2)c(I)c1)C(=O)O (centres undefined) |  |  |
|  |  |  |  | COc1ccc(Oc2c(I)cc(CC(N)C(=O)O)cc2I)cc1I (centres undefined) | 11.25% | 1.051 |
|  |  |  |  | COc1ccc(Oc2c(I)cc(CC(N)C(=O)O)cc2I)cc1C(C)C (centres undefined) | 19% | 1.279 |
| 8% | 0.903 |  |  | NC(Cc1cc(I)c(Oc2ccc(O)c3ccccc23)c(I)c1)C(=O)O (centres undefined) |  |  |

| SMILES | RBA (Rattus norvegicus [2]) | log(%) (Rattus norvegicus [2]) | RBA [3] | log(%) [3] | Activity (Rattus norvegicus [1]) | log(%) (Rattus norvegicus [1]) |
| --- | --- | --- | --- | --- | --- | --- |
| NC(Cc1ccc(Oc2ccc(O)c(I)c2)c(I)c1)C(=O)O (centres undefined) [DIIODOTHYRONINE] | 0.5% | -0.301 |  |  | 0.056% | -1.252 |
| NC(Cc1ccc(Oc2cc(I)c(O)c(I)c2)c(I)c1)C(=O)O (centres undefined) [REVERSETRIIODOTHYRONINE] | 0.1% | -1 |  |  | 0.125% | -0.903 |
| NC(Cc1cc(I)c(Cc2ccc(O)c(I)c2)c(I)c1)C(=O)O (centres undefined) | 250% | 2.4 |  |  | 54.25% | 1.734 |
